The values below come from ChEMBL document CHEMBL1153686, “On the microbial biogeneration of (R) -jasmolactone” (1993).

Common to all, as to type: functional
The subject of test [1] is Scheffersomyces stipitis. Nature of the test: 5-tetradecen-4-olide Isolated at 24 hours incubation of compound in Pichia stipitis.
In test [2] the test system is Scheffersomyces stipitis. Nature of the test: Z-6-dodecen-4-olide Isolated at 24 hours incubation of compound in Pichia stipitis.
Test [3] relates to Kodamaea ohmeri. Put plainly: Z-6-dodecen-4-olide Isolated at 24 hours incubation of compound in Pichia ohmeri.
The test system of test [4] is Kodamaea ohmeri. Put plainly: dodecan-4-olide Isolated at 24 hours incubation of compound in Pichia ohmeri.
The test system of test [5] is Kodamaea ohmeri. Nature of the test: Z-6, Z-9-dodecadien-4-olide Isolated at 24 hours incubation of compound in Pichia ohmeri.
Test [6] deals with Scheffersomyces stipitis. Nature of the test: dodecan-4-olide Isolated at 24 hours incubation of compound in Pichia stipitis.
Test [7] deals with Scheffersomyces stipitis. Nature of the test: Z-6, Z-9-dodecadien-4-olide Isolated at 24 hours incubation of compound in Pichia stipitis.
The test system of test [8] is Kodamaea ohmeri. Put plainly: E-5,Z-7-dodien-4-olide solated at 24 hours incubation of compound in Pichia ohmeri.
The test system of test [9] is Kodamaea ohmeri. Put plainly: E-5-decen-4-olide Isolated at 24 hours incubation of compound in Pichia ohmeri.
The test system of test [10] is Scheffersomyces stipitis. Nature of the test: E-5,Z-7-dodien-4-olide Isolated at 24 hours incubation of compound in Pichia stipitis.
In test [11] the test system is Scheffersomyces stipitis. Put plainly: E-5-decen-4-olide Isolated at 24 hours incubation of compound in Pichia stipitis.
For test [12], the system named is Kodamaea ohmeri. Put plainly: Decan-4-olide Isolated at 24 hours incubation of compound in Pichia ohmeri.
Test [13] relates to Scheffersomyces stipitis. Put plainly: Z-7-decen-5-olide Isolated at 24 hours incubation of compound in Pichia stipitis.
Test [14] deals with Kodamaea ohmeri. Put plainly: Z-7-decen-5-olide Isolated at 24 hours incubation of compound in Pichia ohmeri.
Test [15] deals with Scheffersomyces stipitis. Nature of the test: 5-octen-4-olide Isolated at 24 hours incubation of compound in Pichia stipitis.
Test [16] has as its system Scheffersomyces stipitis. Nature of the test: Hexane-4-olide Isolated at 24 hours incubation of compound in Pichia stipitis.
The test system of test [17] is Kodamaea ohmeri. Nature of the test: Hexane-4-olide Isolated at 24 hours incubation of compound in Pichia ohmeri.
The subject of test [18] is Scheffersomyces stipitis. Nature of the test: Octane-4-olide Isolated at 24 hours incubation of compound in Pichia stipitis.
The test system of test [19] is Kodamaea ohmeri. Put plainly: Nonan-4-olide Isolated at 24 hours incubation of compound in Pichia ohmeri.
For test [20], the system named is Scheffersomyces stipitis. Nature of the test: […] Isolated at 24 hours incubation of compound in Pichia stipitis.
The subject of test [21] is Kodamaea ohmeri. Nature of the test: […] Isolated at 24 hours incubation of compound in Pichia ohmeri.

For the molecule `CCCCCCCC/C=C/CCCC1CCC(=O)O1` (stereo unspecified), the Lactone production turned out to be 2.6 with Scheffersomyces stipitis [1]; 11 in the test on Scheffersomyces stipitis [2]; 11.8 in the test on Kodamaea ohmeri [3]; 4.6 in the test on Kodamaea ohmeri [4]; 25.6 with Kodamaea ohmeri [5]; 4 in the test with Scheffersomyces stipitis [6]. For the same molecule, the Lactone production with Scheffersomyces stipitis [7] worked out at 16.7.

Take `CC/C=C/C=C/[C@@H]1CCC(=O)O1`: the Lactone production in the test on Kodamaea ohmeri [8] came out at 20.5; with Kodamaea ohmeri [9], 7.6; with Scheffersomyces stipitis [10], 25.09; with Scheffersomyces stipitis [11] it was 8.6; with Kodamaea ohmeri [12], 1.5.

Take `CC/C=C/C[C@@H]1CCC(=O)O1`: the Lactone production with Scheffersomyces stipitis [13] amounted to 12.5; in the test with Kodamaea ohmeri [14], 12.3.

As for `CC/C=C/CCCC1CCC(=O)O1` (stereo unspecified), the Lactone production in the test with Scheffersomyces stipitis [15] is reported as 11.9; in the test on Scheffersomyces stipitis [16] it was 3.2; in the test with Kodamaea ohmeri [17], 8.25.

On to `CC/C=C/CC[C@@H]1CCC(=O)O1`, for which the Lactone production in the test with Scheffersomyces stipitis [18] is on record as 4; with Kodamaea ohmeri [19], 5.9; with Scheffersomyces stipitis [20] it was 0.3; with Kodamaea ohmeri [21], 1.1.
